The values that follow come from patent US20150306086A1, “MODULATING CERTAIN TYROSINE KINASES” (Tesaro, Inc., priority 2011, published 2015).

Like-named read-outs stand apart in the source and are kept apart here.

Series [1] addresses T1, cytoplasmic domain (amino acids 1058-1620) of wild-type human ALK (Homo sapiens, UniProt Q9UM73).
T1 construct: cytoplasmic domain (amino acids 1058-1620) of wild-type human ALK; GST (N); made in house; host or cells: SF9 cells
The series can be described thus: ALK inhibition in enzyme assay (Lance TR-FRET). It is filed as biochemical. (Time-resolved FRET reads energy transfer from a long-lived donor to a nearby acceptor.)

For a further series, the target named is EGFR(T790M) (Homo sapiens, UniProt P00533, T790M). The series can be described thus: Off-chip mobility shift kinase assay, EGFR [T790M]. It is filed as biochemical. Conditions: Srctide 1000 nM, ATP 1 μM, Mg + Mn 5 + 1 mM.
The next series has as its target FAK (Homo sapiens, UniProt Q05397). As to the kind of experiment: Off-chip mobility shift kinase assay, FAK. It is filed as biochemical. Conditions: Blk/Lyntide 1000 nM, ATP 25 μM, Mg 5 mM.
The target in a further series is FLT1 (Homo sapiens, UniProt P17948). The series can be described thus: Off-chip mobility shift kinase assay, FLT1. It is filed as biochemical. Conditions: CSKtide 1000 nM, ATP 150 μM, Mg 5 mM, reaction time 5 hours.
The next series concerns the target FLT4 (Homo sapiens, UniProt P35916). The series can be described thus: Off-chip mobility shift kinase assay, FLT4. It is filed as biochemical. Conditions: CSKtide 1000 nM, ATP 75 μM, Mg 5 mM.
The target in another series is KDR (Homo sapiens, UniProt P35968). As to the kind of experiment: Off-chip mobility shift kinase assay, KDR. It is filed as biochemical. Conditions: CSKtide 1000 nM, ATP 75 μM, Mg 5 mM.
The next series has as its target RET (Homo sapiens, UniProt P07949). As to the kind of experiment: Off-chip mobility shift kinase assay, RET. It is filed as biochemical. The note with it: CSKtide 1000 nM, ATP 10 μM, Mg 5 mM.
In another series the target is RET(G691S) (Homo sapiens, UniProt P07949, G691S). As to the kind of experiment: Off-chip mobility shift kinase assay, RET [G691S]. It is filed as biochemical. The note with it: CSKtide 1000 nM, ATP 10 μM, Mg 5 mM.
In a further series the target is RET(M918T) (Homo sapiens, UniProt P07949, M918T). As to the kind of experiment: Off-chip mobility shift kinase assay, RET [M918T]. It is filed as biochemical. The note with it: CSKtide 1000 nM, ATP 5 μM, Mg 5 mM.
A further series has as its target RET(S 891A) (Homo sapiens, UniProt P07949, S891A). As to the kind of experiment: Off-chip mobility shift kinase assay, RET [S891A]. It is filed as biochemical. Conditions: CSKtide 1000 nM, ATP 10 μM, Mg 5 mM.
For a further series, the target named is RET(Y791F) (Homo sapiens, UniProt P07949, Y791F). As to the kind of experiment: Off-chip mobility shift kinase assay, RET [Y791F]. It is filed as biochemical. Conditions: CSKtide 1000 nM, ATP 25 μM, Mg 5 mM.
The target of another series is TRKA (Homo sapiens, UniProt P04629). As to the kind of experiment: Off-chip mobility shift kinase assay, TRKA. Conditions: CSKtide 1000 nM, ATP 75 μM, Mg 5 mM. It is filed as biochemical.
The target in the next series is TRKB (Homo sapiens, UniProt Q16620). As to the kind of experiment: Off-chip mobility shift kinase assay, TRKB. It is filed as biochemical. The note with it: Srctide 1000 nM, ATP 75 μM, Mg 5 mM.
A further series deals with TRKC (Homo sapiens, UniProt Q16288). The series can be described thus: Off-chip mobility shift kinase assay, TRKC. It is filed as biochemical. The note with it: Srctide 1000 nM, ATP 50 μM, Mg 5 mM.
A further series has as its target T2, FLT3 (Homo sapiens, UniProt P36888).
T2 sequence (P36888 27-993): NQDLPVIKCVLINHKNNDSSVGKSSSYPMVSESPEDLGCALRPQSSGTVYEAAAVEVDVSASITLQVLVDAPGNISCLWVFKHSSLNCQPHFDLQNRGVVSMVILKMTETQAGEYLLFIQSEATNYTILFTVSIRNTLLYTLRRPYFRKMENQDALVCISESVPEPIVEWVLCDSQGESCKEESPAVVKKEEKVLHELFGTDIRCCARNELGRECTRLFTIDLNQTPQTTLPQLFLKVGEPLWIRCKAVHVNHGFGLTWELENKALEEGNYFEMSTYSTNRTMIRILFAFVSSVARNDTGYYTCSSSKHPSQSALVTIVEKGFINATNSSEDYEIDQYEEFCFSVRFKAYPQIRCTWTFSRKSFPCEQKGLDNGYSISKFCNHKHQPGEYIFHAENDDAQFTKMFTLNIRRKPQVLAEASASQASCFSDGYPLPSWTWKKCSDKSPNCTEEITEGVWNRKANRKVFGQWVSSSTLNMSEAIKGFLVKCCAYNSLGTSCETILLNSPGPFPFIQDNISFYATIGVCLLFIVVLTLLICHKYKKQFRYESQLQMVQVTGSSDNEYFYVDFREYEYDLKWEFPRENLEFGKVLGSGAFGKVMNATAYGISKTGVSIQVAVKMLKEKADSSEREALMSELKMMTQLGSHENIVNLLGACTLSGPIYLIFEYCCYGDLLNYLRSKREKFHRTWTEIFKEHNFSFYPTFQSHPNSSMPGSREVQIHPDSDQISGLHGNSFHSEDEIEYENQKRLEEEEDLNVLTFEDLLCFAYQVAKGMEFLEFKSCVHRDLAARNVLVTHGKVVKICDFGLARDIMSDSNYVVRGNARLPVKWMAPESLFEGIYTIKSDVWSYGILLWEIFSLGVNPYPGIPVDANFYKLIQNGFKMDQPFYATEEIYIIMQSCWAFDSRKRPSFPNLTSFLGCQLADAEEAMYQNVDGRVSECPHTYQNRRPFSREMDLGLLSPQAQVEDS
As to the kind of experiment: Off-chip mobility shift kinase assay, FLT3. It is filed as biochemical. The note with it: Srctide 1000 nM, ATP 100 μM, Mg 5 mM.

Another series concerns the target T3, NGF (Homo sapiens, UniProt P01138).
T3 construct: host or cells: patients (endogenous NGF)
Conditions: osteoarthritis pain study, cited from earlier work.

Turning to `CC(C)N(C)C(=O)[C@H]1CC[C@@H](n2/c(=N/C(=O)c3ccc(F)cc3)[nH]c3cnc(CN4CCCCC4)cc32)CC1` [Example 46], in series [1], the IC50 – broadly, the concentration needed to halve the response being measured – was under 0.05 µM.
Same read-out and setting: to `CC(=O)[C@H]1CC[C@@H](n2/c(=N/C(=O)c3cccc(F)c3)[nH]c3ccc(CO)cc32)CC1` [Example 70] belongs 1 to 5 µM.
`CCOC(=O)[C@H]1CC[C@@H](n2/c(=N/C(=O)c3cccc(F)c3)[nH]c3cnc(OCCN4CCC(C(C)(C)O)CC4)cc32)CC1` [Example 79] returned an IC50 in series [1] of 1 to 5 µM.
In series [1], `CNC(=O)[C@]1(O)CC[C@@H](n2/c(=N/C(=O)c3ccc(F)cc3)[nH]c3cnc(OCCN4CCCCC4)cc32)CC1` [Example 82] had an IC50 of 1 to 5 µM.
In series [1], `CNC(=O)[C@]1(O)CC[C@H](n2/c(=N/C(=O)c3ccc(F)cc3)[nH]c3cnc(OCCN4CCCCC4)cc32)CC1` [Example 83] gave an IC50 of 0.1 to 1 µM.
`COC(=O)[C@H]1CC[C@@H](n2/c(=N/C(=O)c3ccc(F)cc3)[nH]c3cnc(CN4CCOCC4)cc32)CC1` [Example 85] registered an IC50 in series [1] of under 0.05 µM.
The same measure, in the same setting: the result for `CC(C)NC(=O)[C@H]1CC[C@@H](n2/c(=N/Cc3ccc4ccsc4c3)[nH]c3cnc(OCCN4CCCCC4)cc32)CC1` [Example 87] reads 0.05 to 0.1 µM; that for `O=C(/N=c1\[nH]c2cnc(OCCN3CCCCC3)cc2n1[C@H]1CC[C@@H](C(=O)N2CCNCC2)CC1)c1ccc(F)cc1` [Example 124], 0.1 to 1 µM.
As for `CC(C)NC(=O)[C@H]1CC[C@@H](n2/c(=N/C(=O)c3cccc(F)c3)[nH]c3cnc(OCCN4CCC(C(C)(C)O)CC4)cc32)CC1` [Example 130], the IC50 in [1] was under 0.05 µM.
Still for that read-out and setting: the result for `C=CCNS(=O)(=O)c1cccc(C(=O)/N=c2\[nH]c3cnc(OCCN4CCC(C(C)(C)O)CC4)cc3n2[C@H]2CC[C@H](C(=O)NC(C)C)CC2)c1` [Example 131] reads 0.1 to 1 µM.
`CC(C)NC(=O)[C@H]1CC[C@@H](n2/c(=N/C(=O)c3ccc(F)c(C#N)c3)[nH]c3ccc(CN4CCC(C(C)(C)O)CC4)cc32)CC1` [Example 146] returned a half-maximal inhibitory concentration (IC50) in series [1] of under 0.05 µM.
Same read-out and setting: to `CC(C)NC(=O)[C@H]1CC[C@@H](N2c3cc(O)ccc3NC2NC(=O)c2ccc(F)cc2)CC1` (stereo partly drawn) [Example 154] belongs under 0.05 µM.
With `CC(C)NC(=O)[C@H]1CC[C@@H](n2/c(=N/C(=O)c3ccc(F)cc3)[nH]c3ccc(CN4CCN(S(=O)(=O)O)CC4)cc32)CC1` [Example 172], the IC50 in series [1] was under 0.05 µM.
For `CC(C)NC(=O)[C@H]1CC[C@@H](n2/c(=N/C(=O)c3ccc(F)cc3)[nH]c3ccc(CN4CCN(C(N)=O)CC4)cc32)CC1` [Example 177], the IC50 in series [1] is under 0.05 µM.
Still for that read-out and setting: the result for `CC(C)C(=O)N[C@H]1CC[C@@H](n2/c(=N/C(=O)c3ccc(F)cc3)[nH]c3cnc(CN4CCC(C(C)(C)O)CC4)cc32)CC1` [Example 227] reads 0.05 to 0.1 µM; that for `CC(=O)N[C@H]1CC[C@H](n2/c(=N/C(=O)c3cccc(F)c3)[nH]c3ccc(CN4CCC(C(C)(C)O)CC4)cc32)CC1` [Example 229], 0.05 to 0.1 µM.
Regarding `CCCNS(=O)(=O)c1cccc(C(=O)/N=c2\[nH]c3cnc(OCCN4CCCCC4)cc3n2C2CCC(C(N)=O)CC2)c1` (stereo not drawn) [Example 244], the IC50 in [1] (2 nM enzyme, ATP 40 μM (Km apparent), 90 minutes, mean of three replicates) lay within 0.05 to 0.1 µM.
As for `CC(C)NC(=O)[C@H]1CC[C@@H](n2/c(=N/C(=O)c3ccc(F)cc3)[nH]c3ccc(CN4CCC(C(C)(C)O)CC4)cc32)CC1` [I-a], the IC50 at EGFR(T790M) is over 1 µM; at FAK, 0.001 to 0.1 µM; on FLT1, over 1 µM; on FLT4 it was over 1 µM; on KDR it was over 1 µM; at RET it was 0.001 to 0.1 µM. Further, the IC50 on RET(G691S) is 0.001 to 0.1 µM; on RET(M918T) it was 0.001 to 0.1 µM; at RET(S 891A), 0.001 to 0.1 µM; at RET(Y791F), 0.001 to 0.1 µM; on TRKA, under 0.001 µM; on TRKB it was 0.001 to 0.1 µM. Besides, the IC50 on TRKC fell in the range of 0.001 to 0.1 µM.
Turning to `CC(C)NC(=O)[C@H]1CC[C@@H](n2/c(=N/C(=O)c3cc(F)cc(F)c3)[nH]c3ccc(CN4CCC(C(C)(C)O)CC4)cc32)CC1` [I-b], the IC50 at EGFR(T790M) was over 1 µM; at FAK, 0.101 to 0.5 µM; at FLT1 it was over 1 µM; on FLT3, 0.001 to 0.1 µM; at FLT4 it was over 1 µM; on KDR, over 1 µM. Also, the IC50 on RET was over 1 µM; at RET(G691S) it was over 1 µM; on RET(M918T), over 1 µM; at RET(S 891A) it was 0.101 to 0.5 µM; at RET(Y791F), over 1 µM; at TRKA, 0.001 to 0.1 µM. Moreover, the IC50 at TRKB and on TRKC was 0.001 to 0.1 µM throughout.
For tanezumab, in the series with NGF (among patients), the “adverse event: headache” value was 9%, the “adverse event: paresthesia” value is listed as 7% and the “adverse event: upper respiratory infection” value was 7%. In addition, in the series with NGF (55% in placebo group), the “rate of adverse events” value is reported as 68%.
